Measured values published in ChEMBL document CHEMBL1201862, “PubChem BioAssay data set” (2004).
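The compound was tested at five concentrations on cells cultured in 96-well plates, with a 48-hour exposure period. GI50 = concentration required for 50% inhibition of growth.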 Active and inactive are the calls of the source. Rule as the data show it: active = GI50 up to about 1.1 µM and inactive = higher.

Experiments:
Assay in all cases: DTP human tumour cell line panel, 48 h
LOX IMVI = test system: LOX IMVI
OVCAR-4 = test system: OVCAR-4
RXF 393 = test system: RXF 393
MDA-MB-231 = test system: MDA-MB-231
IGROV-1 = test system: IGROV-1
DU-145 = test system: DU-145
SF-295 = test system: SF-295
RPMI-8226 = test system: RPMI-8226
HCT-15 = test system: HCT-15
SF-268 = test system: SF-268
EKVX = test system: EKVX
A498 = test system: A498
OVCAR-8 = test system: OVCAR-8
A549 = test system: A549
SK-MEL-5 = test system: SK-MEL-5
UACC-62 = test system: UACC-62
COLO 205 = test system: COLO 205
HOP-62 = test system: HOP-62
UO-31 = test system: UO-31
U-251 = test system: U-251
ACHN = test system: ACHN
MCF7 = test system: MCF7
SNB-19 = test system: SNB-19
Malme-3M = test system: Malme-3M
HCT-116 = test system: HCT-116
M14 = test system: M14
SW-620 = test system: SW-620
Hs-578T = test system: Hs-578T
UACC-257 = test system: UACC-257
SN12C = test system: SN12C
HT-29 = test system: HT-29
HOP-92 = test system: HOP-92
MDA-N = test system: MDA-N
NCI-H226 = test system: NCI-H226
MDA-MB-435 = test system: MDA-MB-435
CAKI-1 = test system: CAKI-1
PC-3 = test system: PC-3
MOLT-4 = test system: MOLT-4
NCI-H23 = test system: NCI-H23
NCI/ADR-RES = test system: NCI/ADR-RES
NCI-H460 = test system: NCI-H460
HCC 2998 = test system: HCC 2998
OVCAR-5 = test system: OVCAR-5
SK-MEL-28 = test system: SK-MEL-28
K562 = test system: K562
SF-539 = test system: SF-539
BT-549 = test system: BT-549
SNB-75 = test system: SNB-75
OVCAR-3 = test system: OVCAR-3
SK-MEL-2 = test system: SK-MEL-2
CCRF-CEM = test system: CCRF-CEM
TK-10 = test system: TK-10
786-0 = test system: 786-0
KM12 = test system: KM12
NCI-H522 = test system: NCI-H522
SK-OV-3 = test system: SK-OV-3
HL-60 = test system: HL-60
T47D = test system: T47D

Cc1nnc(N)s/c1=N/O
GI50 (LOX IMVI): > 100 µM (inactive)
GI50 (OVCAR-4): > 100 µM (inactive)
GI50 (RXF 393): > 100 µM (inactive)
GI50 (MDA-MB-231): > 100 µM (inactive)
GI50 (IGROV-1): > 100 µM (inactive)
GI50 (DU-145): > 100 µM (inactive)
GI50 (SF-295): > 100 µM (inactive)
GI50 (RPMI-8226): > 100 µM (inactive)
GI50 (HCT-15): > 100 µM
GI50 (SF-268): > 100 µM (inactive)
GI50 (EKVX): > 100 µM (inactive)
GI50 (A498): > 100 µM (inactive)
GI50 (OVCAR-8): > 100 µM (inactive)
GI50 (A549): > 100 µM (inactive)
GI50 (SK-MEL-5): 56.9 µM (inactive)
GI50 (UACC-62): > 100 µM (inactive)
GI50 (COLO 205): > 100 µM (inactive)
GI50 (HOP-62): > 100 µM (inactive)
GI50 (UO-31): > 100 µM (inactive)
GI50 (U-251): > 100 µM (inactive)
GI50 (ACHN): > 100 µM (inactive)
GI50 (MCF7): > 100 µM (inactive)
GI50 (SNB-19): > 100 µM (inactive)
GI50 (Malme-3M): > 100 µM (inactive)
GI50 (HCT-116): > 100 µM (inactive)
GI50 (M14): > 100 µM (inactive)
GI50 (SW-620): > 100 µM (inactive)
GI50 (Hs-578T): > 100 µM (inactive)
GI50 (UACC-257): 56.9 µM (inactive)
GI50 (SN12C): > 100 µM (inactive)
GI50 (HT-29): > 100 µM (inactive)
GI50 (HOP-92): > 100 µM (inactive)
GI50 (MDA-N): > 100 µM (inactive)
GI50 (NCI-H226): > 100 µM (inactive)
GI50 (MDA-MB-435): > 100 µM (inactive)
GI50 (CAKI-1): > 100 µM (inactive)
GI50 (PC-3): > 100 µM (inactive)
GI50 (MOLT-4): > 100 µM (inactive)
GI50 (NCI-H23): > 100 µM (inactive)
GI50 (NCI/ADR-RES): > 100 µM (inactive)
GI50 (NCI-H460): > 100 µM (inactive)
GI50 (HCC 2998): > 100 µM (inactive)
GI50 (OVCAR-5): > 100 µM (inactive)
GI50 (SK-MEL-28): > 100 µM (inactive)
GI50 (K562): > 100 µM (inactive)
GI50 (SF-539): > 100 µM (inactive)
GI50 (BT-549): > 100 µM (inactive)
GI50 (SNB-75): > 100 µM (inactive)
GI50 (OVCAR-3): > 100 µM (inactive)
GI50 (SK-MEL-2): > 100 µM (inactive)
GI50 (CCRF-CEM): > 100 µM (inactive)
GI50 (TK-10): > 100 µM (inactive)
GI50 (786-0): > 100 µM (inactive)
GI50 (KM12): > 100 µM (inactive)
GI50 (NCI-H522): > 100 µM (inactive)
GI50 (SK-OV-3): > 100 µM (inactive)
GI50 (HL-60): > 100 µM (inactive)
GI50 (T47D): > 100 µM (inactive)
